Measured values: US20230158153A1, “PI3 KINASE INHIBITORS AND USES THEREOF” (Purdue Research Foundation, priority 2020, published 2023)

What was measured:
[1] = test system: TGFβ1-stimulated HLF cells; test: Collagen synthesis (Col.1/GAPDH) in TGFβ1-stimulated HLF cells; format: cell-based; settings: Homo sapiens, TGFβ1 10 ng/mL, 24 h, read-out: IC50 of suppression of collagen synthesis
Protocol: (§1) Lysates were collected and analyzed for the indicated proteins by Western blotting, wherein pAkt (S473) is phosphorylated protein kinase B, Akt is protein kinase B, Col.1 is collagen 1, αSMA is α-smooth muscle actin, pSMAD2 is phosphor-SMAD2 kinase, SMAD2 is mothers against decapentaplegic homolog 2, and GAPDH is glyceraldehyde 3-phosphate dehydrogenase.
(§2) To determine whether the nontargeted version of PI3Ki1 might enter human lung fibroblasts and inhibit PI3K activity, HLF-FAP cells were incubated for 24 h with either omipalisib or PI3Ki1 and then the impact on TGFβ1 stimulation, including phosphorylation of Akt, collagen synthesis, contraction of a collagen gel, and apoptosis of myofibroblasts were examined. […] Moreover, nontargeted PI3Ki1suppressed collagen synthesis with better potency than omipalisib, displaying an IC50˜10 nM (FIG. 4C).
(§3) Serum starved confluent HLF cells were co-incubated in medium containing 10 ng/ml TGFβ1 with or without the indicated concentrations of PI3K inhibitors for 24 hours. Cells were harvested and lysed for Western blot analysis. Following sodium dodecyl sulphate polyacrylamide gel electrophoresis and blocking, membranes were incubated with antibodies to detect pSMAD2 Ser465/467 (#3101, Cell Signalling Technology), or pAkt Ser473 (#4060, Cell signalling Technology), and signals were visualized with ECL Western Blot Detection Reagents (GE Healthcare). […]

HLF = HLF contraction of a collagen gel; format: cell-based, human; settings: 100 nM
Protocol: Data were analyzed using one-way ANOVA, followed by post-hoc Tukey test (n=3; *p<0.01).
as §2

IPF fibroblasts = test: Molecular crowding assay for collagen in IPF fibroblasts; format: cell-based, human; settings: 100 nM, 2 h, then inhibitor-free media with TGFβ1
Protocol: FIG. 7E and FIG. 7F show assay of collagen biosynthesis (green channel) using a molecular crowding assay (0.1% DMSO vehicle was constant for all experimental conditions). IPF fibroblasts were treated with 100 nM omipalisib, PI3Ki1 or FAPL-PI3Ki1for 2 hours, after which the media were removed and the fibroblasts were further stimulated for 48 h with media containing TGFβ1 (10 ng/mL). Cell counts were obtained from DAPI counterstaining (blue channel). Data were analyzed using one-way ANOVA, followed by post-hoc Tukey test (n=3; *p.-(0.05).
Next, the FAP-targeted PI-3 kinase inhibitors were tested to determine if they might suppress collagen formation by human IPF fibroblasts. For this purpose, TGFβ1-stimulated IPF lung fibroblasts were stimulated for 2 h with omipalisib, PI3Ki1, or FAPL-PI3Ki1, followed by replacement of the inhibitor-containing media with inhibitor-free growth media and continued incubation for 46 h. […] Importantly, this concurrent suppression of both mTOR and PI3K activity should be very beneficial to the desired therapy, since collagen synthesis associated with pathogenic fibrosis can be induced by both pathways.
Confluent IPF fibroblasts (4000 cells/well) were cultured in 96-well plates in DMEM containing 0.4% fetal calf serum, ascorbic acid (100 μM), and mixed Ficoll 70 and Ficoll 400 as molecular crowding agents. […]

PI3K [2] = test: Western blot of Akt phosphorylation in TGFβ1-stimulated HLF cells; format: cell-based, human; set-up: inhibition of Akt phosphorylation on serine 473: dose or concentration left out as unconfirmed
Protocol: as §1, §2, §3

PI3K [3] = test: Western blot of Akt phosphorylation in TGFβ1-stimulated human IPF fibroblasts; format: cell-based; settings: 3, 9, 27 or 81 min incubation
Protocol: After replacing the medium with inhibitor-free medium, the cells were cultured for an additional 22 hours, lysed with phosphatase inhibitor containing cell lysis solution, and analyzed for the indicated proteins by Western blotting (n=3).
After an additional 24-hour incubation, cells were lysed and the indicated proteins were analyzed by Western blotting (n=3).
Random/zed shRNA (shCTL) served as a control (n=2).
FIGS. 8A-8B are representative Western blots showing that FAP-targeted PI-3 Kinase inhibitor (FAPL-PI3Ki1) suppresses phosphorylation of Akt in IPF fibroblasts.
Firstly, primary lung fibroblasts from an IPF patient were stimulated for 24 h with TGFβ1 (to activate them to a FAP-expressing state) and then incubated for 2 h with increasing concentrations of FAPL-PI3Ki1, in the presence or absence of 100-fold excess FAPL to block unoccupied FAP sites.
Secondly, IPF lung fibroblasts were stimulated with TGFβ1 and then incubated for different durations with either FAPL-targeted or nontargeted PI3Ki1, followed by replacement of the culture media with inhibitor-free media (FIG. 7B and FIGS. 8A-8B). The anticipation was that FAP-targeted PI3Ki1 would be retained by FAP on FAP-expressing cells during short incubation times, whereas nontargeted PI3Ki1would not be captured by FAP and would subsequently be washed away when the media was changed. […]

HLF cells = test: Caspase 3 and 7 activities in HLF cells (drug-induced apoptosis); format: cell-based
Protocol: The experiments in panels A-E have been reproduced three times, each with three independent samples, n=3).
as §2

SMILES | IC50 [1] | inhibition of TGFβ1 stimulated fibroblast contraction of a collagen gel (HLF) | biosynthesis of collagen (IPF fibroblasts) | inhibition of Akt phosphorylation on serine 473 (PI3K [2]) | IC50 (PI3K [2]; Homo sapiens, HLF, TGFβ1 10 ng/mL, 24 h, read-out: IC50 of inhibition of phosphorylation of Akt) | pAkt after short incubation and replacement with inhibitor-free media (PI3K [3]) | caspase activity (HLF cells; concentrations below 100 nM) | fibroblast apoptosis (caspase 3 and 7 activation) (HLF cells; increasing concentrations)
COc1ncc(-c2ccc3nccc(-c4ccc(CO)nc4)c3c2)cc1NS(=O)(=O)c1ccc(F)cc1F [PI3Ki1] | ~10 nM | reduce TGFβ1 induced collagen remodeling | only moderately inhibited | nearly complete inhibition | ~1 nM | no diminution in pAkt expression | weak induction of caspase activity | only promoted fibroblast cell death at concentrations much higher than those required to prevent collagen synthesis
COc1ncc(-c2ccc3nccc(-c4ccnnc4)c3c2)cc1NS(=O)(=O)c1ccc(F)cc1F [omipalisib, reference compound] |  |  | only moderately inhibited |  |  |  |  | 
